From US5137887A, “Salts of optically active 4-hydroxy-8(3-lower alkoxy-4-phenylsulfinylphenyl)pyrazolo(1,5-A)-1,3,5- triazines and a process for production thereof” (Otsuka Pharmaceutical Factory, Inc., priority 1989, dated 1992)
Like-named read-outs stand apart in the source and are kept apart here.

Legend:
Solubility test = assay type: physicochemical; details: shaken at 25° C., HPLC
Description: Solubility tests with the above respective samples using water (distilled water for injection) and physiological saline as solvents were performed as follows.
Using an incubator (Taiyo Kagaku Kogyo, M-100), the tube was shaken at 25° C. After 4 hours, the content was filtered through a 0.45 μm filter and the filtrate was diluted 100-fold with mobile phase to prepare a test solution. Separately, 40.0 mg of Sample I (racemic form) was accurately weighed and made up with water to make exactly 200 ml. Then, 1 ml of this solution was accurately taken and diluted with mobile phase to make exactly 20 ml (10 μg/ml) of standard solution. Using the above test solutions and the standard solution, the solubilities of the respective samples were determined.

[1] = test system: xanthine dehydrogenase activity in the liver; test: Xanthine dehydrogenase inhibitory activity test (enzyme activity in liver after oral administration); assay type: in vivo; details: male ICR rats, 5 mg/kg orally in 0.5% CMC; for Enzymatic activity in the liver isolated after 4 hr.: liver excised 4 hours after administration; for Enzymatic activity in the liver isolated after 8 hr.: liver excised 8 hours after administration
Description: Xanthine dehydrogenase inhibitory activity test
The test was performed using male ICR […] (aged 6 weeks, b.w. 28.0-40.6 g). The compounds of the invention as obtained in Example 2 were respectively suspended in 0.5% carboxymethylcellulose (CMC) solution and the suspensions were administered orally at the rate of 10 ml/kg (Test Group 1 and Test Group 2). The compound of the invention and its dosage used in each test group are shown below.
After 4 and 8 hours from the administration, animals in each group were sacrified, the liver was excised, and the xanthine dehydrogenase activity in the liver was assayed by the following general procedure.
Thus, a homogenate of the liver was diluted 5-fold with 100 mM Tris-HCl buffer (hereinafter referred to merely as buffer). Then, 50 μl of this dilution, 25 μl of a buffer dilution of NAD^+ (20 mM) and 25 μl of a buffer solution of potassium oxonate were added to 300 μl of the buffer (the concentrations of NAD^+ and potassium oxonate in the total solution were 1 mM each) and the mixture was incubated at 25° C. for 5 minutes. This incubate was centrifuged and the uric acid in the supernatant was estimated by high performance liquid chromatography (HPLC). The value was taken as the pre-treatment baseline.
On the other hand, to a preincubate obtained in the same manner as above was added 100 μl of a buffer solution of xanthine (1 mM) and the mixture was incubated at 25° C. for 5 minutes. The reaction was stopped with 50 μl of 6M perchloric acid and the reaction mixture was centrifuged in the same manner as above. The supernatant was neutralized with an aqueous solution of sodium dihydrogen phosphate and uric acid produced was assayed by HPLC. The value was taken as the post-treatment value.
From the difference between the above post-treatment value and pre-treatment baseline value of uric acid, xanthine dehydrogenase activity was determined.

[2] = physiological saline, read-out: Solubility in physiological saline
[3] = water, water (distilled water for injection), read-out: Solubility in water

Compound: COc1cc(-c2cnn3c(O)ncnc23)ccc1[S+]([O-])c1ccccc1 (single isomer, unassigned) [Sample IV, Calcium bis[(-)-8-(3-methoxy-4-phenylsulfinylphenyl)pyrazolo[1,5-a]-1,3,5-triazine-4-olate] dihydrate]
- solubility at 4 h (Solubility test; [2]): ≥ 500 mg/mL
- solubility at 4 h (Solubility test; water (distilled water for injection), read-out: Solubility in water): ≥ 500 mg/mL

Compound: COc1cc(-c2cnn3c([O-])ncnc23)ccc1[S+]([O-])c1ccccc1.O.O.[Na+] (single isomer, unassigned) [Sample II, Sodium (-)-8-(3-methoxy-4-phenylsulfinylphenyl)pyrazolo[1,5-a]-1,3,5-triazine-4-olate dihydrate]
- solubility at 4 h (Solubility test; [2]): ≥ 500 mg/mL
- solubility at 4 h (Solubility test; [3]): ≥ 500 mg/mL
- Enzymatic activity in the liver isolated after 4 hr. ([1]; control 152 ± 21, listed as Test group 1, dihydrate): 7 ± 4 mU/g
- Enzymatic activity in the liver isolated after 8 hr. ([1]; control 137 ± 31, listed as Test group 1, dihydrate): 17 ± 7 mU/g

Compound: COc1cc(-c2cnn3c([O-])ncnc23)ccc1[S+]([O-])c1ccccc1.O.O.[Na+] (single isomer, unassigned) [Sample III, Sodium (+)-8-(3-methoxy-4-phenylsulfinylphenyl)pyrazolo[1,5-a]-1,3,5-triazine-4-olate dihydrate]
- Enzymatic activity in the liver isolated after 4 hr. ([1]; control 152 ± 21, listed as Test group 2, dihydrate): 33 ± 16 mU/g
- Enzymatic activity in the liver isolated after 8 hr. ([1]; control 137 ± 31, listed as Test group 2, dihydrate): 22 ± 10 mU/g

Compound: COc1cc(-c2cnn3c([O-])ncnc23)ccc1[S+]([O-])c1ccccc1.O.[Na+] (racemic) [Sample I, Sodium (±)-8-(3-methoxy-4-phenylsulfinylphenyl)pyrazolo[1,5-a]-1,3,5-triazine-4-olate monohydrate, reference compound]
- Solubility in physiological saline (Solubility test; physiological saline, 4 hours, listed as sodium salt of the racemic compound, monohydrate, 240 min): about 0.08 w/w %
- Solubility in physiological saline (Solubility test; physiological saline, 4 hours, monohydrate, 240 min): 0.0083 w/w %
- Solubility in water (Solubility test; water (distilled water for injection), 4 hours, listed as sodium salt of the above racemic compound, monohydrate, 240 min): about 0.2 w/w %
- solubility at 4 h (Solubility test; [3]): 2.21 mg/mL
